4 molecules from article PMC8289695 (Cell Reports, 2021) can be followed below.

The test deals with SARS-CoV-2. The class given is cell-based, strain USA_WA1/2020. The settings on record: for time of addition: single treatment 1 h prior to infection, compound removed prior to infection: VPS34-IN1 and PIK-III at 5 μM.

For `Nc1ncc(-c2ccnc(Nc3ccncc3)n2)c(CC2CC2)n1` [PIK-III], the “time of addition: single treatment 1 h prior to infection, compound removed prior to infection” value (“time of addition … to infection” for short) is “inhibited SARS-CoV-2 replication”.
Take `CC(C)(O)CNc1ncc(-c2ccnc(Nc3ccnc(Cl)c3)n2)c(CC2CC2)n1` [VPS34-IN1]: the “time of addition … to infection” value is “inhibited SARS-CoV-2 replication”.
For `CCCCCCCCCCC[C@@H](C[C@@H]1OC(=O)[C@H]1CCCCCC)OC(=O)[C@H](CC(C)C)NC=O` [orlistat], the “time of addition: dosing at 2 hpi or 4 hpi” value is “remained inhibitory” and the “time of addition … to infection” value is given as “minimal efficacy”.
Consider `CCC/C=C/C/C=C/C=C/C=N/NN=O` [triacsin C], for which the “time of addition: dosing at 2 hpi or 4 hpi” value was “remained inhibitory” and the “time of addition … to infection” value was “minimal efficacy”.
